Data taken from US20240293370A1, “USE OF COMPOUNDS IN INHIBITING OR KILLING MITES AND TREATING XEROPHTHALMIA” (Precvision Biotechnologies LTD., priority 2021, published 2024).
Where a name gives a salt, the structure may show the parent alone.

Tested on: Demodex
Test: Acaricidal experiment: Demodex culture in vitro, survival time of mites
Conditions: adult Demodex, 20° C., 96% humidity
Method: This study strictly followed the ethical principles of the Declaration of Helsinki, and Ethical Guidelines for Biomedical Research Involving Human Subjects. In this study, Demodex was collected from patients diagnosed with ocular Demodex infection. Those meeting the inclusion criteria would be enrolled after an informed conversation and signing an informed consent form.
Demodex detection was performed according to the conventional eyelash microscopic examination method. 3 eyelashes were extracted from each eyelid, and a total of 12 eyelashes were extracted. The extracted eyelashes were immediately placed on a glass slide, and one piece of each three eyelashes was placed under an ordinary light microscope for observation. Demodex at all stages were counted and classified according to morphology (specific criteria were: Demodex brevis at a head-to-body ratio of 1:1 and Demodex folliculorum at a head-to-body ratio of 1:3 to 1:4). Only adults that were fully exposed to the field of view were taken as subjects (larvae and eggs were not considered as subjects since they were more fragile in early life).
Based on the above detection of Demodex, 50 μl of different solutions were added to each slide, and the survival of the worms was observed every 1 hour. The death was judged by observing whether the worms were active (body, limbs, or the like) under a microscope. Two skilled Demodex-related experimenters observed and judged separately during the experiment. If the judgment results were different, the third skilled experimenter was asked to make an independent judgment. The culture in vitro was performed in a climate chamber at 20° C. and 96% humidity. Slides were transported in a humid chamber under observation and the solution was added appropriately to ensure high humidity before vacuoles appeared on solution evaporation.

`N[C@H]1C[C@@H]1c1ccccc1` [Hydrochloride salt of V-C] was tested, and the “Average survival time of mites” value (concentration 1 mg/mL in 0.9% NaCl solution) was 7.44 ± 6.07 h, the “Average survival time of mites” value (concentration 3 mg/mL in 0.9% NaCl solution) was 5.66 ± 0.91 h and the “Average survival time of mites” value (concentration 10 mg/mL in 0.9% NaCl solution) was 2.89 ± 1.08 h. For the same compound, the “Average survival time of mites” value (concentration 30 mg/mL in 0.9% NaCl solution) was 2.24 ± 1.32 h.
